Laboratory results: US12371428B2 (Exelixis, Inc., priority 2019, dated 2025)

Key:
[1] = molecular target: KDR (phospho-KDR, VEGF165-stimulated HUVEC cells) (Homo sapiens (Human), UniProt P35968); experiment: KDR autophosphorylation ELISA in HUVEC cells (Example G); format: cell-based; details: cellular activity; KDR autophosphorylation ELISA in HUVEC cells
Procedure, shortened: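 HUVEC cells, serum-starved 24 h, were treated 1 h with an 8-point compound dilution (0.3% DMSO) and then stimulated with 100 ng/mL VEGF165 for 5 min. Phospho-KDR in lysates was quantified by sandwich ELISA against a phospho-KDR standard. IC50 from a 4-parameter logistic fit, normalised between stimulated DMSO and unstimulated controls.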

[2] = molecular target: Human MET (residues 956-1390) (Homo sapiens (Human), UniProt P08581); experiment: Human Met kinase assay, HTRF KinEase (Example D-2); format: biochemical; details: protocol of Example D-2 (other compounds); read-out: c-Met IC50
Chain of Human MET (residues 956-1390) (P08581 956-1390): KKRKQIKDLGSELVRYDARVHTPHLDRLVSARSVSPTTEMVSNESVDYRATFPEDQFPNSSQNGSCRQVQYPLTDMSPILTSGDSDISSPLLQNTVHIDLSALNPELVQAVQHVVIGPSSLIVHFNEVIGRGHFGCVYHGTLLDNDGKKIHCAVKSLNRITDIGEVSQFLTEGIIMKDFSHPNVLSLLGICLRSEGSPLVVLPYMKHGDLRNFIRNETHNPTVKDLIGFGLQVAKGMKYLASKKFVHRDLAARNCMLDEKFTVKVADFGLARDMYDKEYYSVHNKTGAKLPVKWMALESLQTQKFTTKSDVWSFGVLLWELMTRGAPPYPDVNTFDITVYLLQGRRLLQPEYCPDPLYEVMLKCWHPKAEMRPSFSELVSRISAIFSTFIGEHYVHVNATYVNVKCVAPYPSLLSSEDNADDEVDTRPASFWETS
Procedure, shortened: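 HTRF KinEase assay on MET residues 956-1390 (0.1 ng/well) in buffer with 5 mM MgCl2, 1 mM DTT and 1 mM MnCl2, with biotinylated peptide substrate, ATP at Km, 10 compound concentrations and 3% DMSO final, run 40 min at room temperature. The […] signal was normalized to DMSO and to 1 μM reference compound, and IC50 came from a 4-parameter logistic fit.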

Chain of KDR (phospho-KDR, VEGF165-stimulated HUVEC cells) (P35968 20-1356): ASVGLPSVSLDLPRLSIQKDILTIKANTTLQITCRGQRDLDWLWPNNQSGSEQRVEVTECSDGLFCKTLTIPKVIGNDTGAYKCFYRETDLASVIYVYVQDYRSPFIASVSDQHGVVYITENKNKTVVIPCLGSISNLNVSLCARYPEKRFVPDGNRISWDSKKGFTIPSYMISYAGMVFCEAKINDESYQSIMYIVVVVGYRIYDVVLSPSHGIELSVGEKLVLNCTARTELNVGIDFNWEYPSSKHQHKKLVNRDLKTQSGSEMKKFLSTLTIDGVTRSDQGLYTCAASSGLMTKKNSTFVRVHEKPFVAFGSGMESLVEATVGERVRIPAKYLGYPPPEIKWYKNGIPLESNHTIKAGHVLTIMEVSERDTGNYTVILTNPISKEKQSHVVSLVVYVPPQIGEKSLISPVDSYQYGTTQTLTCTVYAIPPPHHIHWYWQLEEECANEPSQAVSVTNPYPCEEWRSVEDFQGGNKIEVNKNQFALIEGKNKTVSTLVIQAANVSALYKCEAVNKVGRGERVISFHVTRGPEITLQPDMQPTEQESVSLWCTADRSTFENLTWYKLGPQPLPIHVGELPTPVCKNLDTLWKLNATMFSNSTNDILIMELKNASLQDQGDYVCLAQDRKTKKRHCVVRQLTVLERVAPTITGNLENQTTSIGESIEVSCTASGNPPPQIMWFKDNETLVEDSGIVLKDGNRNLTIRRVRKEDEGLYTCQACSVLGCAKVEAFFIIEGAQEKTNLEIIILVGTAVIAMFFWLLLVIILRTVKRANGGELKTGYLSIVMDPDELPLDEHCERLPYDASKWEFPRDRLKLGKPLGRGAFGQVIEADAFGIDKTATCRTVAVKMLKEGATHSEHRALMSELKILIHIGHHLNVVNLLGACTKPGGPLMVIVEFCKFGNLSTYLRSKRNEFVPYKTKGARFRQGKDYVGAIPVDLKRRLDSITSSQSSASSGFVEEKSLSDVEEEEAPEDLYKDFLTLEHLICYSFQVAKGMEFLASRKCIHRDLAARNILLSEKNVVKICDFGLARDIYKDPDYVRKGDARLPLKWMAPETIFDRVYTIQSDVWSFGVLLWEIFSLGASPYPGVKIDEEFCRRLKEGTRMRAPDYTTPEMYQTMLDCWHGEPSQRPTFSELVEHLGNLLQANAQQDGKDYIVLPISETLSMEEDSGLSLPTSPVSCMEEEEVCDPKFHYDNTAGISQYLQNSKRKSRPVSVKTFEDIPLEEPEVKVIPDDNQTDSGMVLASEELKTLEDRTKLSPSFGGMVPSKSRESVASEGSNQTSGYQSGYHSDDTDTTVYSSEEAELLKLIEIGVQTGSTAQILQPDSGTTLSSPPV

SMILES	IC50 [1]	IC50 [2]
COCc1nc(C)c(-c2ccc(F)cc2C)c(O)c1C(=O)Nc1ccc(Oc2ccnc3cc(OC)c(OC)nc23)cc1 [Compound 192, N-[4-[(6,7-Dimethoxy-1,5-naphthyridin-4-yl)oxy]phenyl]-5-(4-fluoro-2-methylphenyl)-4-hydroxy-2-(methoxymethyl)-6-methylpyridine-3-carboxamide]	< 100 nM	< 100 nM
COCc1nc(C)c(-c2ccc(F)cc2C)c(O)c1C(=O)Nc1ccc(Oc2ccnc3cc(OC)cnc23)c(F)c1 [Compound 193, N-[3-Fluoro-4-[(7-methoxy-1,5-naphthyridin-4-yl)oxy]phenyl]-5-(4-fluoro-2-methylphenyl)-4-hydroxy-2-(methoxymethyl)-6-methylpyridine-3-carboxamide]	< 100 nM	< 100 nM
COCc1nc(C)c(-c2ccc(F)cc2C)c(O)c1C(=O)Nc1ccc(Oc2ccnc3cc(OC)cnc23)cc1 [Compound 194, 5-(4-Fluoro-2-methylphenyl)-4-hydroxy-2-(methoxymethyl)-N-[4-[(7-methoxy-1,5-naphthyridin-4-yl)oxy]phenyl]-6-methylpyridine-3-carboxamide]	< 100 nM	< 100 nM
COCc1nc(C)c(-c2ccc(F)cc2C)c(O)c1C(=O)Nc1ccc(Oc2ccnc3ccc(OC)nc23)c(F)c1 [Compound 195, N-[3-Fluoro-4-[(6-methoxy-1,5-naphthyridin-4-yl)oxy]phenyl]-5-(4-fluoro-2-methylphenyl)-4-hydroxy-2-(methoxymethyl)-6-methylpyridine-3-carboxamide]	< 100 nM	100 to 300 nM
COc1cc2nccc(Oc3ccc(NC(=O)c4cn(C)c(C)c(-c5ccc(F)cc5C)c4=O)cc3)c2nc1OC [Compound 196, N-[4-[(6,7-Dimethoxy-1,5-naphthyridin-4-yl)oxy]phenyl]-5-(4-fluoro-2-methylphenyl)-1,6-dimethyl-4-oxopyridine-3-carboxamide]	< 100 nM	< 100 nM
CCc1nc(C)c(-c2ccc(F)cc2)c(O)c1C(=O)Nc1ccc(Oc2ccnc3cc(OC)c(OC)nc23)cc1 [Compound 197, N-[4-[(6,7-Dimethoxy-1,5-naphthyridin-4-yl)oxy]phenyl]-2-ethyl-5-(4-fluorophenyl)-4-hydroxy-6-methylpyridine-3-carboxamide]	< 100 nM	< 100 nM
COCCOc1nc2c(Oc3ccc(NC(=O)c4cn(C)c(C)c(-c5ccc(F)cc5)c4=O)cc3F)ccnc2cc1OC [Compound 198, N-[3-Fluoro-4-[[7-methoxy-6-(2-methoxyethoxy)-1,5-naphthyridin-4-yl]oxy]phenyl]-5-(4-fluorophenyl)-1,6-dimethyl-4-oxopyridine-3-carboxamide]	< 100 nM	< 100 nM
COCCOc1nc2c(Oc3ccc(NC(=O)c4c(COC)nc(C)c(-c5ccc(F)cc5)c4O)cc3F)ccnc2cc1OC [Compound 199, N-[3-Fluoro-4-[[7-methoxy-6-(2-methoxyethoxy)-1,5-naphthyridin-4-yl]oxy]phenyl]-5-(4-fluorophenyl)-4-hydroxy-2-(methoxymethyl)-6-methylpyridine-3-carboxamide]	< 100 nM	< 100 nM
COCCOc1nc2c(Oc3ccc(NC(=O)c4cn(C)c(C)c(-c5ccc(F)cc5C)c4=O)cc3F)ccnc2cc1OC [Compound 200, N-[3-Fluoro-4-[[7-methoxy-6-(2-methoxyethoxy)-1,5-naphthyridin-4-yl]oxy]phenyl]-5-(4-fluoro-2-methylphenyl)-1,6-dimethyl-4-oxopyridine-3-carboxamide]	< 100 nM	< 100 nM
COCCOc1nc2c(Oc3ccc(NC(=O)c4c(COC)nc(C)c(-c5ccc(F)cc5C)c4O)cc3F)ccnc2cc1OC [Compound 201, N-[3-Fluoro-4-[[7-methoxy-6-(2-methoxyethoxy)-1,5-naphthyridin-4-yl]oxy]phenyl]-5-(4-fluoro-2-methylphenyl)-4-hydroxy-2-(methoxymethyl)-6-methylpyridine-3-carboxamide]	< 100 nM	< 100 nM
CCc1nc(C)c(-c2ccc(F)cc2C)c(O)c1C(=O)Nc1ccc(Oc2ccnc3cc(OC)c(OC)nc23)c(F)c1 [Compound 202, N-[4-[(6,7-Dimethoxy-1,5-naphthyridin-4-yl)oxy]-3-fluorophenyl]-2-ethyl-5-(4-fluoro-2-methylphenyl)-4-hydroxy-6-methylpyridine-3-carboxamide]	< 100 nM	100 to 300 nM
CCc1nc(C)c(-c2ccc(F)cc2C)c(O)c1C(=O)Nc1ccc(Oc2ccnc3cc(OC)c(OC)nc23)cc1 [Compound 203, N-[4-[(6,7-Dimethoxy-1,5-naphthyridin-4-yl)oxy]phenyl]-2-ethyl-5-(4-fluoro-2-methylphenyl)-4-hydroxy-6-methylpyridine-3-carboxamide]	< 100 nM	100 to 300 nM
CCc1nc(C)c(-c2ccc(F)cc2C)c(O)c1C(=O)Nc1ccc(Oc2ccnc3cc(OC)cnc23)c(F)c1 [Compound 204, 2-Ethyl-N-[3-fluoro-4-[(7-methoxy-1,5-naphthyridin-4-yl)oxy]phenyl]-5-(4-fluoro-2-methylphenyl)-4-hydroxy-6-methylpyridine-3-carboxamide]	< 100 nM	100 to 300 nM
CCc1nc(C)c(-c2ccc(F)cc2C)c(O)c1C(=O)Nc1ccc(Oc2ccnc3cc(OC)cnc23)cc1 [Compound 205, 2-Ethyl-5-(4-fluoro-2-methylphenyl)-4-hydroxy-N-[4-[(7-methoxy-1,5-naphthyridin-4-yl)oxy]phenyl]-6-methylpyridine-3-carboxamide]	< 100 nM	< 100 nM
CCc1nc(C)c(-c2ccc(F)cc2C)c(O)c1C(=O)Nc1ccc(Oc2ccnc3ccc(OC)nc23)c(F)c1 [Compound 206, 2-Ethyl-N-[3-fluoro-4-[(6-methoxy-1,5-naphthyridin-4-yl)oxy]phenyl]-5-(4-fluoro-2-methylphenyl)-4-hydroxy-6-methylpyridine-3-carboxamide]	< 100 nM	100 to 300 nM
COc1cnc2c(Oc3ccc(NC(=O)c4ccc(C)n(-c5ccc(F)cc5)c4=O)cc3)ccnc2c1 [Compound 216, 1-(4-Fluorophenyl)-N-[4-[(7-methoxy-1,5-naphthyridin-4-yl)oxy]phenyl]-6-methyl-2-oxopyridine-3-carboxamide]	< 100 nM	< 100 nM
COc1cnc2c(Oc3ccc(NC(=O)c4cnc(CO)c(-c5ccc(F)cc5)c4O)cc3F)ccnc2c1 [Compound 217, N-[3-Fluoro-4-[(7-methoxy-1,5-naphthyridin-4-yl)oxy]phenyl]-5-(4-fluorophenyl)-4-hydroxy-6-(hydroxymethyl)pyridine-3-carboxamide]	< 100 nM	< 100 nM
COc1cnc2c(Oc3ccc(NC(=O)c4cnc(CO)c(-c5ccc(F)cc5)c4O)cc3)ccnc2c1 [Compound 218, 5-(4-Fluorophenyl)-4-hydroxy-6-(hydroxymethyl)-N-[4-[(7-methoxy-1,5-naphthyridin-4-yl)oxy]phenyl]pyridine-3-carboxamide]	< 100 nM	< 100 nM
COc1cc2nccc(Oc3ccc(NC(=O)c4ccc(C)n(-c5ccc(F)cc5C)c4=O)cc3F)c2nc1OC [Compound 219, N-[4-[(6,7-Dimethoxy-1,5-naphthyridin-4-yl)oxy]-3-fluorophenyl]-1-(4-fluoro-2-methylphenyl)-6-methyl-2-oxopyridine-3-carboxamide]	< 100 nM	< 100 nM
COc1cnc2c(Oc3ccc(NC(=O)c4ccc(C)n(-c5ccc(F)cc5C)c4=O)cc3F)ccnc2c1 [Compound 220, N-[3-Fluoro-4-[(7-methoxy-1,5-naphthyridin-4-yl)oxy]phenyl]-1-(4-fluoro-2-methylphenyl)-6-methyl-2-oxopyridine-3-carboxamide]	< 100 nM	< 100 nM
COc1cc2nccc(Oc3ccc(NC(=O)c4cn(C)c(CO)c(-c5ccc(F)cc5)c4=O)cc3)c2nc1OC [Compound 221, N-[4-[(6,7-Dimethoxy-1,5-naphthyridin-4-yl)oxy]phenyl]-5-(4-fluorophenyl)-6-(hydroxymethyl)-1-methyl-4-oxopyridine-3-carboxamide]	100 to 300 nM	< 100 nM
COc1cnc2c(Oc3ccc(NC(=O)c4cn(C)c(CO)c(-c5ccc(F)cc5)c4=O)cc3F)ccnc2c1 [Compound 222, N-[3-Fluoro-4-[(7-methoxy-1,5-naphthyridin-4-yl)oxy]phenyl]-5-(4-fluorophenyl)-6-(hydroxymethyl)-1-methyl-4-oxopyridine-3-carboxamide]	> 300 nM	< 100 nM
COc1cnc2c(Oc3ccc(NC(=O)c4cn(C)c(CO)c(-c5ccc(F)cc5)c4=O)cc3)ccnc2c1 [Compound 223, 5-(4-Fluorophenyl)-6-(hydroxymethyl)-N-[4-[(7-methoxy-1,5-naphthyridin-4-yl)oxy]phenyl]-1-methyl-4-oxopyridine-3-carboxamide]	> 300 nM	< 100 nM
COc1ccc2nccc(Oc3ccc(NC(=O)c4cn(C)c(CO)c(-c5ccc(F)cc5)c4=O)cc3F)c2n1 [Compound 224, N-[3-Fluoro-4-[(6-methoxy-1,5-naphthyridin-4-yl)oxy]phenyl]-5-(4-fluorophenyl)-6-(hydroxymethyl)-1-methyl-4-oxopyridine-3-carboxamide]	> 300 nM	< 100 nM
COc1cc2nccc(Oc3ccc(NC(=O)c4ccc(C)n(-c5ccc(F)cc5C)c4=O)cc3)c2nc1OC [Compound 225, N-[4-[(6,7-Dimethoxy-1,5-naphthyridin-4-yl)oxy]phenyl]-1-(4-fluoro-2-methylphenyl)-6-methyl-2-oxopyridine-3-carboxamide]	< 100 nM	< 100 nM
